The values below come from patent US11180495B2 (Abbisko Therapeutics Co., Ltd., priority 2017, dated 2021).

One test addresses PDGFRA (Homo sapiens, UniProt P16234). In words: PDGFRA in vitro biochemical kinase study (Caliper EZ Reader). The settings on record: FAM-labeled polypeptide, Caliper EZ Reader II; read-out: Enzymatic experiment PDGFRA IC50. Here is the method:
(§1) In the present invention, the inhibitory activity of compounds against the CSF-1R activity was determined by using CSF-1R ADP-Glo assay. The compound-mediated inhibition effect was achieved by inhibiting the production of ADP from consumption of ATP, and the activities of compounds were evaluated by using the ADP-Glo kit (Promega, cat. No. V9101). The specific experimental process was as follows: • 1. The kinase reaction performed in the present invention was carried out in a 384-well plate (Perkinelmer, cat. No. 6007290), and 3.95 nM of CSF-1R, 500 μM of ATP and 0.2 mg/mL of polypeptide (Poly (Glu4, Try1), Sigma, cat. No. P0275) were respectively weighed and added to each well: • 2. following reagents were then added to each well to reach the final reaction system: 40 mM Tris, pH 7.5, 20 mM MgCl2, 0.01% Triton X-100, 0.1 mg/mL BSA, 2.5 mM DTT and 0.1% DMSO; • 3. the reaction was conducted at 30° C. for 60 min; • 4. then an equal volume of stop solution (ADP-Glo) was added to the kinase reaction system; • 5. the mixed solution was incubated at 25° C. for 60 min, and the kinase reaction was then terminated; • 6. a two-fold volume of detection reagent was then added to each well; • 7. the mixed solution was incubated at 25° C. for 30 min; • 8. the compound IC50 value was measured by using a plate reader (Tecan, M1000) and a four-parameter curve was generated in Graphpad Prism. B. KIT/PDGFRA In Vitro Biochemical Kinase Study • 1. Preparation of 1-fold kinase buffer and stop solution • 1.1 1-fold kinase buffer: 50 mM HEPES, pH 7.5, 0.0015% Brij-35. • 1.2 stop solution: 100 mM HEPES, pH 7.5, 0.015% Brij-35, 0.2% Coating Reagent #3 50 mM EDTA • 2. Preparation of compound solution • 2.1 Dilution of compound solution • 1) The final concentration of the compound solution was 40 μM. and the concentration of the prepared stock solution was 50 times of the final concentration, i.e., 2 mM. • 2) 80 μL of 100% DMSO was added to the second well of the 96-well plate, then 20 μL of 10 mM compound solution was added, and thereby 2 mM compound solution was prepared, 60 μL of 100% DMSO was added to other wells, 20 μL of compound was taken from the second well, added to the third well and diluted by 4 times. […]

A further test has as its target T1, CSF-1R (Homo sapiens, UniProt P07333).
T1 construct: 3.95 nM of CSF-1R, 500 μM of ATP and 0.2 mg/mL of polypeptide
In words: CSF-1R in vitro biochemical kinase study (ADP-Glo assay). The settings on record: 3.95 nM CSF-1R, 500 μM ATP, 30° C. 60 min, read-out: Enzymatic experiment CSF-1R IC50. Here is the method:
In the present invention, the inhibitory activity of compounds against the CSF-1R activity was determined by using CSF-1R ADP-Glo assay. The compound-mediated inhibition effect was achieved by inhibiting the production of ADP from consumption of ATP, and the activities of compounds were evaluated by using the ADP-Glo kit (Promega, cat. No. V9101). The specific experimental process was as follows: • 1. The kinase reaction performed in the present invention was carried out in a 384-well plate (Perkinelmer, cat. No. 6007290), and 3.95 nM of CSF-1R, 500 μM of ATP and 0.2 mg/mL of polypeptide (Poly (Glu4, Try1), Sigma, cat. No. P0275) were respectively weighed and added to each well: • 2. following reagents were then added to each well to reach the final reaction system: 40 mM Tris, pH 7.5, 20 mM MgCl2, 0.01% Triton X-100, 0.1 mg/mL BSA, 2.5 mM DTT and 0.1% DMSO; • 3. the reaction was conducted at 30° C. for 60 min; • 4. then an equal volume of stop solution (ADP-Glo) was added to the kinase reaction system; • 5. the mixed solution was incubated at 25° C. for 60 min, and the kinase reaction was then terminated; • 6. a two-fold volume of detection reagent was then added to each well; • 7. the mixed solution was incubated at 25° C. for 30 min; • 8. the compound IC50 value was measured by using a plate reader (Tecan, M1000) and a four-parameter curve was generated in Graphpad Prism. B. KIT/PDGFRA In Vitro Biochemical Kinase Study • 1. Preparation of 1-fold kinase buffer and stop solution • 1.1 1-fold kinase buffer: 50 mM HEPES, pH 7.5, 0.0015% Brij-35. • 1.2 stop solution: 100 mM HEPES, pH 7.5, 0.015% Brij-35, 0.2% Coating Reagent #3 50 mM EDTA • 2. Preparation of compound solution • 2.1 Dilution of compound solution • 1) The final concentration of the compound solution was 40 μM. and the concentration of the prepared stock solution was 50 times of the final concentration, i.e., 2 mM. • 2) 80 μL of 100% DMSO was added to the second well of the 96-well plate, then 20 μL of 10 mM compound solution was added, and thereby 2 mM compound solution was prepared, 60 μL of 100% DMSO was added to other wells, 20 μL of compound was taken from the second well, added to the third well and diluted by 4 times. This serial 4-time dilution was conducted in sequence for the total of 10 concentrations. • 2.2 5-fold compound solution transferred to a reaction plate • 1) 10 μL of solution was taken from each well of the above 96-well plate and added to another 96-well plate, and 90 μL of kinase buffer was added. • 2) 5 μL of solution was taken from the above 96-well plate and added to a 384-well reaction plate. • 2.3 Kinase reaction • 1) KIT/PDGFRA kinase was added to the 1-fold kinase buffer solution to obtain a 2.5-fold kinase solution. • 2) FAM-labeled polypeptide and ATP were added to the 1-fold kinase buffer solution to obtain a 2.5-fold substrate solution. • 3) 10 μL of 2.5-fold kinase solution was added to the 384-well reaction plate, which already contained 5 μL of 5-fold compound in 10% DMSO. And the mixed solution was incubated at room temperature for 10 min. • 4) 10 μL of 2.5-fold substrate solution was added to the 384-well reaction plate. • 5) Kinase reaction and termination: the mixed solution was incubated at 28° C. for a certain period of time, and 25 μL of stop solution was added to stop the reaction. • 2.4 Data reading of Caliper EZ Reader II • 2.5 Calculation of percent inhibition and IC50 • 1) Percent conversion data were copied from the Caliper EZ Reader. • 2) Percent conversion was converted into percent inhibition data, wherein, max referred to percent conversion of the DMSO control, and min referred to percent conversion of the negative control without kinase activity. Percent inhibition=(max−conversion)/(max−min)*100. • 3) The IC50 value was fitted with XLFit excel add-in version 5.4.0.8: Fitting formula: Y=Bottom+(Top−Bottom)/(1+(IC50/X)^HillSlope).
(In general: ADP-Glo turns the ADP formed in a reaction into a luminescent signal.)

The next test deals with KIT (Homo sapiens, UniProt P10721). In words: KIT in vitro biochemical kinase study (Caliper EZ Reader). The settings on record: FAM-labeled polypeptide, Caliper EZ Reader II; read-out: Enzymatic experiment KIT IC50. Here is the method: as §1
The test system of test [1] is M-NFS-60 mouse myeloid leukemia lymphocytes. The test can be described thus: CSF-1R-related cell proliferation experiment (Cell Titer Glo). In kind it is cell-based. The settings on record: 72 h, M-NFS-60 cells, 3 days, CTG. Here is the method: Functional effects of compounds on cell proliferation were evaluated by using Cell Titer Glo (CTG) study in the present invention. M-NFS-60 mouse myeloid leukemia lymphocytes (cat. No. CCBJ078) from National Institutes For Food and Drug Control were cultured in the incubator under conditions of RPMI 1640 (Gibco, cat. No. 11875-119), 10% fetal bovine serum (Gibco, 10099-141), human 10 ng/mL M-CSF macrophage colony-stimulating factor (R&D, cat. No. MVN0915101), 37° C. and 5% CO2. Since ATP is an index for viable cell metabolism, CTG (Promega, #G7573) reagent is a homogeneous detection method for detecting the number of viable cells in the culture by quantifying ATP. Therefore, compound-mediated inhibition for cell proliferation/survival was evaluated by quantifying ATP in cells, and the specific experimental process was as follows: • 1. The cells were plated into a tissue-culture-medium-treated 96-well plate (Costar #3904) with 5,000 cells/well/80 μL fresh culture medium: • 2. 24 hours later, 10 μL culture medium containing testing compound with 10-fold of final concentration was added to each well; • 3. 10 μL of culture medium containing M-CSF with 10-fold of the final concentration was then added to each well: • 4. dosage effect was evaluated by testing the 3-fold serial dilutions of the compound; • 5. after the cells were incubated for 3 days at 37° C. and 5% CO2, the inhibition on cell survival was quantified after 50 μL of CTG was added and the luminescence assay was performed; • 6. the compound concentration leading to half maximal inhibitory (IC50) and the compound concentration leading to absolute half maximal inhibitory (Absolute IC50) were measured by a plate reader (M1000, Tecan) and a four-parameter curve fit in Graphpad Prism 7. D. CSF-1R-Related Cell Proliferation Experiment

Test [2] concerns M-07e human cytomegalic leukemia cells. In words: KIT-related cell proliferation experiment (Cell Titer Glo). The settings on record: 72 h, M-07e cells, SCF, 3 days, CTG, read-out: Cytological experiment KIT IC50. It is filed as cell-based. Here is the method:
(§2) Functional effects of compounds on the proliferation of several cell lines were evaluated by Cell Titer Glo (CTG) studies in the present invention, and effects of the compounds on the proliferation of different cells were evaluated to determine the selectivity degree of the compounds. In the study, M-07e human cytomegalic leukemia cells (cat. No. CBP60791) from Nanjing Kebai Biotechnology Co., Ltd. were cultured in an incubator under conditions of RPMI1640 (Gibco, cat. No. 11875-119), 20% fetal bovine serum (Gibco, 10099-141), human 10 ng/mL GM-CSF granulocyte macrophage colony-stimulating factors (R&D, cat. No. 215-GM-010), 37° C. and 5% CO2; and Kasumi-1 human acute myeloblastic leukemia cells (cat. No. CBP60524) were cultured in an incubator under conditions of RPMI1640 (Gibco, cat. No. 11875-119), 20% fetal bovine serum (Gibco, 10099-141), 37° C. and 5% CO2; NCI-H1703 human non-small cell lung squamous carcinoma cells (cat. No. CBP60115) were cultured in an incubator under conditions of RPMI1640 (Gibco, cat. No. 11875-119), 10% fetal bovine serum (Gibco, 10099-141), 37° C. and 5% CO2; and MV-4-11 human acute monocytic leukemia cells (cat. No. CBP60522) were cultured in an incubator under conditions of IMDM (Invitrogen, cat. No. 12440053), 20% fetal bovine serum (Gibco, 10099-141), 37° C. and 5% CO2. Since ATP is an index for viable cell metabolism, CTG (Promega, #G7573) reagent is a homogeneous detection method for detecting the number of viable cells in the culture by quantifying ATP. Therefore, compound-mediated inhibition for cell proliferation/survival was evaluated by quantifying ATP content in cells, and the specific experimental process was as follows.
I) M-07e Human Cytomegalic Leukemia Cell: • 1. The cells were plated into a tissue-culture-medium-treated 96-well plate (Costar #3904) with 3500 cells/well/80 μL fresh culture medium, and cultured for 24 hrs; • 2. the next day, 10 μL of culture medium containing testing compound with 10-fold of final concentration was added to each well; • 3.
On the technique in general: Cellular ATP, detected with luciferase, serves as a proxy for viable cell number.

In test [3] the test system is NCI-H1703 human non-small cell lung squamous carcinoma cells. In words: PDGFRA-related cell proliferation experiment (Cell Titer Glo). In kind it is cell-based. The settings on record: 72 h, 3 days, CTG, read-out: Cytological experiment PDGFRA IC50. Here is the method:
as §2
II) NCI-H1703 Human Non-Small Cell Lung Squamous Carcinoma Cell • 1.

For test [4], the system named is MV-4-11 human acute monocytic leukemia cells. The test can be described thus: FLT3-related cell proliferation experiment (Cell Titer Glo). The settings on record: MV4-11, 72 h, MV-4-11 cells, 3 days, CTG, read-out: Cytological experiment FLT3 IC50. It is filed as cell-based. Here is the method: as §2
III) MV-4-11 Human Acute Monocytic Leukemia Cell • 1.

Setting [5] is: absolute half maximal inhibitory concentration, read-out: Cytological experiment CSF-1R Absolute IC50.
Where [6] appears, read: read-out: Cytological experiment CSF1R IC50.

pIC50: −log10 of the molar value. Read-outs that look alike come from different tables or passages of the source.

KIT, sequence (P10721 26-976): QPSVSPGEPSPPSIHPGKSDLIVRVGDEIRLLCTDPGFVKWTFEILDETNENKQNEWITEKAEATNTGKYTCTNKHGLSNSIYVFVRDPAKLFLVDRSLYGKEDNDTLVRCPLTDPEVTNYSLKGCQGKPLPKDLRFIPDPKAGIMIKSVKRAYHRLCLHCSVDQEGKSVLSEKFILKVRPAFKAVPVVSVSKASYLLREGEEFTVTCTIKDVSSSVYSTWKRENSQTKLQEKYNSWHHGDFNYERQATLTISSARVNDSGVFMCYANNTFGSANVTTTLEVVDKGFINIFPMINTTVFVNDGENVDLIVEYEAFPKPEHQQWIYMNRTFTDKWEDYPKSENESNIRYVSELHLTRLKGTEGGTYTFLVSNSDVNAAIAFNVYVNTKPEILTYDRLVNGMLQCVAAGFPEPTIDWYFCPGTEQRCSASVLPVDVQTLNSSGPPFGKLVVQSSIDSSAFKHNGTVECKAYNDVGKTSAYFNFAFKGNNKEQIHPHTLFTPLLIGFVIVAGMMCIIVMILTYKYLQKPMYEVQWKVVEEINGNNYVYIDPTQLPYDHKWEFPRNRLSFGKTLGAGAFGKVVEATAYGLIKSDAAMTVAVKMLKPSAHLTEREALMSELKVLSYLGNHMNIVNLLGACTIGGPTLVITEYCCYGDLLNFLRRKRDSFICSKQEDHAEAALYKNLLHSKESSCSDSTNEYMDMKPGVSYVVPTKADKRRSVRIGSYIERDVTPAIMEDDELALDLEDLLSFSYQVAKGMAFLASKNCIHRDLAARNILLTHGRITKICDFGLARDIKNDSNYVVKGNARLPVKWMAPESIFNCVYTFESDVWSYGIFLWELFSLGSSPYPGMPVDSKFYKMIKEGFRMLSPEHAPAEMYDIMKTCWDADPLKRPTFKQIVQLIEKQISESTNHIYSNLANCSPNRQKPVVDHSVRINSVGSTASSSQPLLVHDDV
PDGFRA, sequence (P16234 24-1089): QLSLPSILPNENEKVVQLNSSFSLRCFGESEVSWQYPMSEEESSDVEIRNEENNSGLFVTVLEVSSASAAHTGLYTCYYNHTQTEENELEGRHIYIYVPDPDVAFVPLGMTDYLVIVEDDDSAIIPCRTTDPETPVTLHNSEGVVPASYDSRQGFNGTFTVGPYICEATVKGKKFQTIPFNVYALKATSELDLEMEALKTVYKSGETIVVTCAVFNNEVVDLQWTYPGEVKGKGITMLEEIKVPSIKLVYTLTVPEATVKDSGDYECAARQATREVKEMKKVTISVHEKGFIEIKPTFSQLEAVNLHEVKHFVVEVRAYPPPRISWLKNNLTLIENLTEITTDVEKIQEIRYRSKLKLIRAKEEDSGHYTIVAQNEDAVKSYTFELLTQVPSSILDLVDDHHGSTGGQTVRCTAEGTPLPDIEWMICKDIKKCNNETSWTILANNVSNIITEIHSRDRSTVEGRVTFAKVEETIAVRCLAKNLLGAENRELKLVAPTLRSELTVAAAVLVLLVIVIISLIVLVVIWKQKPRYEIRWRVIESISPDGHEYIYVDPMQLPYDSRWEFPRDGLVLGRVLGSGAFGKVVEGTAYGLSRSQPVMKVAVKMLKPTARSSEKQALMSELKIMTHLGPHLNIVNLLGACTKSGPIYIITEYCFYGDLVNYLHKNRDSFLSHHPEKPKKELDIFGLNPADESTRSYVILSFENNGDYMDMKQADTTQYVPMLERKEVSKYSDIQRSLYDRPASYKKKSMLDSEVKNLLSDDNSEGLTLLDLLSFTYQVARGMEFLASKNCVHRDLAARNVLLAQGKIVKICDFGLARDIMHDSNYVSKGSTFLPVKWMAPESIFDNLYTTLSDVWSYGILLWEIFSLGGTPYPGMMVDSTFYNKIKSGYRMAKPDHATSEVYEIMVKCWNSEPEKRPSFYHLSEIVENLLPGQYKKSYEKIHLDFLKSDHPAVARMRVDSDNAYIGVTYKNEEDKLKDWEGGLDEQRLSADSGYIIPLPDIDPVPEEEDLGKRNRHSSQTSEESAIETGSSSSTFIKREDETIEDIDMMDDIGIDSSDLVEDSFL
T1 sequence (P07333 20-972): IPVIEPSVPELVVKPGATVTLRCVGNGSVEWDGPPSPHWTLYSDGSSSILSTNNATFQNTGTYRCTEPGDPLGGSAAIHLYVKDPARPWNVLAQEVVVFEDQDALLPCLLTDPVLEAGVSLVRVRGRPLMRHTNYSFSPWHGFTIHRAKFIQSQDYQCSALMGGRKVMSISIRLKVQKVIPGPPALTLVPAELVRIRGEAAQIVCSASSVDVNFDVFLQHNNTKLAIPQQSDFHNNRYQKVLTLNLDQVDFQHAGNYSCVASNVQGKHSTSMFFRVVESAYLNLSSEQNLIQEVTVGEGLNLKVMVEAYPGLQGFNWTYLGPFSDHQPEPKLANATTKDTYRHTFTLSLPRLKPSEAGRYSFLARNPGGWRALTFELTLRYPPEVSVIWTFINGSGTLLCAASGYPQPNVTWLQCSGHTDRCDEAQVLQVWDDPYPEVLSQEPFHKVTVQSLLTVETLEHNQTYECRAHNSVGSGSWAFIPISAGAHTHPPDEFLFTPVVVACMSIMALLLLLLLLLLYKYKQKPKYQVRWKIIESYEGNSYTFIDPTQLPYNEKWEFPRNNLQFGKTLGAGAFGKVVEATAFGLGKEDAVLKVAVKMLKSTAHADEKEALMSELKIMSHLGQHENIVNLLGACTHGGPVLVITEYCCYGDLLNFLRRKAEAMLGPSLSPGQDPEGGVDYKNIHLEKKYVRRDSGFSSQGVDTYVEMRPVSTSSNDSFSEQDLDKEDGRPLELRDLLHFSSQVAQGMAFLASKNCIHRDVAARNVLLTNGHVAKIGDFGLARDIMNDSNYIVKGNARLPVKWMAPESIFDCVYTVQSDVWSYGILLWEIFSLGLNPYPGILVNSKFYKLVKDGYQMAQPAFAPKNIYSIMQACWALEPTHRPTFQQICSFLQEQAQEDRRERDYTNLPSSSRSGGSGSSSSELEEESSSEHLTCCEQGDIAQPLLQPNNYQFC

Take `Cc1nc(-c2cnc(NC(C)C)n(C)c2=O)ccc1Cc1c[nH]c2ncc(Cl)cc12` [Example 10, 5-(5-((5-chloro-1H-pyrrolo[2,3-b]pyridin-3-yl)methyl)-6-methylpyridin-2-yl)-2-(isopropylamino)-3-methylpyrimidin-4(3H)-one]: the pIC50 (in general, the negative decadic logarithm of the IC50, by convention in mol/L) at PDGFRA was 6.17; at CSF-1R, 7.49; at KIT it was 7.86; in test [1] (setting [5]), 7.50; in test [1] (setting [6]), 7.40.
Turning to `Cc1nc(-c2cnc(NC(C)C)[nH]c2=O)ccc1Cc1c[nH]c2ncccc12` [Example 1, 5-(5-((1H-pyrrolo[2,3-b]pyridin-3-yl)methyl)-6-methylpyridin-2-yl)-2-(isopropylamino)pyrimidin-4(3H)-one], the pIC50 at PDGFRA was 5.16; on CSF-1R, 7.56; on KIT it was 6.61; in test [1] (setting [5]), 7.73; in test [1] (setting [6]), 7.33.
On to `CCN1CCCn2c1ncc(-c1ccc(Cc3c[nH]c4ncccc34)c(C)n1)c2=O` [Example 19, 3-(5-((1H-pyrrolo[2,3-b]pyridin-3-yl)methyl)-6-methylpyridin-2-yl)-9-ethyl-6,7,8,9-tetrahydro-4H-pyrimido[1,2-a]pyrimidin-4-one], for which the pIC50 in test [2] is 6.01; in test [3], 5.45; in test [4] it was 5.52; in test [1] (setting [5]) it was 7.25; in test [1] (setting [6]) it was 7.17.
